# Laboratory results reported in US9012492B2, “Apocynin-lipoic acid conjugates and uses thereof” (priority 2011, dated 2015).
# Key:
# [1] = tested on: human liver microsomes (HLM); assay: Metabolic stability using human liver microsomes; type: in vitro ADME
# Excerpt: Table 9 summarizes the experimental conditions used in the studies of the metabolic stability of the compound of Formula (Ia) using dog liver microsomes and human liver microsomes.
# Sprague-Dawley rats = assay: Blood pressure, heart rate and baroreceptor reflex sensitivity; type: in vivo, rat
# Procedure: Sprague-Dawley rats were used to study the effects of (Ia) on reperfusion injury following stroke in a rodent model. The rats were anesthetized, and injected with (la) (0.01-0.1 mg/kg). After 30 minutes, occlusion of the middle cerebral artery (MCA) was performed.
# All experiments were conducted on male Sprague-Dawley rats (total of 229 rats; 250-350 g; Charles River, Montreal, PQ, Canada). For all animals, food and tap water were available ad libitum. Rats were anesthetized with sodium thiobutabarbital (Inactin; Sigma-Aldrich; St. Louis, Mo.; 100 mg/kg ip), which provided a stable plane of anesthesia for the full duration of the experimental time period. To monitor blood pressure and heart rate, a polyethylene catheter (PE-50; Clay Adams, Parsippany, N.J.) was inserted into the right femoral artery. For intravenous administration of drugs, a second polyethylene catheter (PE-10; Clay Adams) was inserted into the right femoral vein. Arterial blood pressure was measured with a pressure transducer (Gould P23 ID, Cleveland, Ohio) connected to a Gould model 2200S polygraph. Heart rate was determined from the pulse pressure using a Gould tachograph (Biotach). […] An endotracheal tube was inserted to facilitate breathing. Body temperature was monitored and maintained at 37±1° C. using a Physitemp feedback system (Physitemp Instruments, Clifton, N.J.).
# To determine the effect of the compound of Formula (Ia) (0.1 mg/kg; 1 ml/kg; n=4) or vehicle (25% EtOH; 1 ml/kg; n=4) administration on baseline blood pressure and heart rate, continuous recordings of blood pressure and heart rate were taken prior to and following drug or vehicle administration. Further recordings of the parameters were made at 15, 30, 45, 60, 90, and 120 min following drug administration, at which time the experiment was terminated.
# To determine the effect of drug administration on autonomic reflex activation, the baroreceptor reflex was evoked using a bolus intravenous injection of the α-adrenergic receptor agonist, phenylephrine-hydrochloride (Sigma-Aldrich; 0.1 ml; 2.5 μg/ml iv). The ratio of the peak change in the magnitude of the reflex bradycardia to the magnitude of the phenylephrine-induced pressor response [ΔHR (heart rate)/ΔMAP (mean arterial pressure)] was used as a measure of baroreceptor reflex sensitivity (BRS). BRS was tested at 10 min and immediately prior to the compound of Formula (Ia) (0.1 mg/kg; 1 ml/kg; n=3) or vehicle (25% EtOH; 1 ml/kg; n=3) administration. BRS was then tested 15 and 30 min following drug administration (prior to MCAO), and then 5, 10, 20, and 30 min during MCAO (30 min MCAO), as well as 10, 20, 30, 60, 90, 120, 150, 210, 270, and 330 min following suture removal. The experiments were terminated after 5.5 h of reperfusion.
# [2] = Stability in sodium phosphate buffer (HPLC); type: physicochemical; conditions: for stability in sodium phosphate buffer: 50 mM, HPLC; for half-life: buffer without microsomes and without NADPH; for half-life / % Metabolism in 30 minutes / CLintr (mL/min/g liver): matrix buffer (no microsomes, no NADPH)
# Procedure: The stability of the compound of Formula (Ia) in a sodium phosphate buffer (50 mM, pH 7.4) was evaluated using HPLC. […] Area counts of apocynin and lipoid acid were found in 0 minute samples and were generally constant until the last time point measured (see: FIGS. 11-12 and Tables 5-6).
# [3] = 0.1 mg/kg iv 30 min prior to I/R, during 30 min MCAO and 5.5 h reperfusion
# [4] = 0.1 mg/kg iv, 2-h continuous recording, no stroke
structure (smiles),measurement,setting,value
COc1cc(C(C)=O)ccc1OC(=O)CCCCC1CCSS1 (stereo not drawn) [compound of Formula (Ia)],% Metabolism in 30 minutes,[1]; HLM control (without NADPH),0%
same,CLintr (mL/min/g liver),[1]; HLM control (without NADPH),>67 mL/min/g liver
same,% Metabolism in 30 minutes,[1]; HLM reaction (with NADPH),0%
same,CLintr (mL/min/g liver),[1]; HLM reaction (with NADPH),>67 mL/min/g liver
same,level of BRS depression during MCAO,Sprague-Dawley rats; 0.1 mg/kg iv 30 min prior to I/R,did not alter the level of BRS depression
same,mean arterial pressure compared with pre-MCAO values,Sprague-Dawley rats; [3],no significant differences
same,mean heart rate compared with pre-MCAO values,Sprague-Dawley rats; [3],no significant differences
same,mean baroreflex sensitivity (BRS),"Sprague-Dawley rats; 0.1 mg/kg iv 30 min prior to I/R, within 5 min of the beginning of MCAO, mean±SE",0.23±0.05 bpm/mmHg
same,mean HR vs vehicle,Sprague-Dawley rats; [4],did not significantly alter
same,mean arterial blood pressure vs vehicle,Sprague-Dawley rats; [4],did not significantly alter
same,systemic blood pressure,"Sprague-Dawley rats; Example 3, 0.01-0.1 mg/kg, measured continuously over 6 hour period",no change in systemic blood pressure
same,% Remaining,"[2]; 0.5 μM in sodium phosphate buffer (50 mM, pH 7.4), 0 min, Set-1",100%
same,% Remaining,"[2]; 0.5 μM in sodium phosphate buffer (50 mM, pH 7.4), 3 min, Set-1",64%
same,% Remaining,"[2]; 0.5 μM in sodium phosphate buffer (50 mM, pH 7.4), 6 min, Set-1",50%
same,% Remaining,"[2]; 0.5 μM in sodium phosphate buffer (50 mM, pH 7.4), 9 min, Set-1",55%
same,% Remaining,"[2]; 0.5 μM in sodium phosphate buffer (50 mM, pH 7.4), 12 min, Set-1",50%
same,% Remaining,"[2]; 0.5 μM in sodium phosphate buffer (50 mM, pH 7.4), 15 min, Set-1",50%
same,% Remaining,"[2]; 0.5 μM in sodium phosphate buffer (50 mM, pH 7.4), 18 min, Set-1",50%
same,% Remaining,"[2]; 0.5 μM in sodium phosphate buffer (50 mM, pH 7.4), 21 min, Set-1",73%
same,% Remaining,"[2]; 0.5 μM in sodium phosphate buffer (50 mM, pH 7.4), 27 min, Set-1",64%
same,% Remaining,"[2]; 0.5 μM in sodium phosphate buffer (50 mM, pH 7.4), 30 min, Set-1",77%
same,stability in sodium phosphate buffer,"[2]; 0.5 μM, pH 7.4",stable
same,% Remaining,"[2]; 10 μM in sodium phosphate buffer (50 mM, pH 7.4), 0 min, Set-1",100%
same,% Remaining,"[2]; 10 μM in sodium phosphate buffer (50 mM, pH 7.4), 3 min, Set-1",83%
same,% Remaining,"[2]; 10 μM in sodium phosphate buffer (50 mM, pH 7.4), 6 min, Set-1",73%
same,% Remaining,"[2]; 10 μM in sodium phosphate buffer (50 mM, pH 7.4), 9 min, Set-1",83%
same,% Remaining,"[2]; 10 μM in sodium phosphate buffer (50 mM, pH 7.4), 12 min, Set-1",73%
same,% Remaining,"[2]; 10 μM in sodium phosphate buffer (50 mM, pH 7.4), 15 min, Set-1",74%
same,% Remaining,"[2]; 10 μM in sodium phosphate buffer (50 mM, pH 7.4), 18 min, Set-1",71%
same,% Remaining,"[2]; 10 μM in sodium phosphate buffer (50 mM, pH 7.4), 21 min, Set-1",76%
same,% Remaining,"[2]; 10 μM in sodium phosphate buffer (50 mM, pH 7.4), 27 min, Set-1",57%
same,% Remaining,"[2]; 10 μM in sodium phosphate buffer (50 mM, pH 7.4), 30 min, Set-1",79%
same,stability in sodium phosphate buffer,"[2]; 10 μM, pH 7.4",stable
same,half-life,[2]; DLM/HLM study,23 min
same,half-life,[2]; rat liver microsome study,> 30 min
same,% Remaining,"[2]; buffer, 0 h, 0.5 μM, pH 7.4",100%
same,"Apocynin area counts, % Remaining","[2]; buffer, 0 h, 0.5 μM, pH 7.4",100%
same,"Lipoic acid area counts, % Remaining","[2]; buffer, 0 h, 0.5 μM, pH 7.4",100%
same,% Remaining,"[2]; buffer, 0 h, 10 μM, pH 7.4",100%
same,"Apocynin area counts, % Remaining","[2]; buffer, 0 h, 10 μM, pH 7.4",100%
same,"Lipoic acid area counts, % Remaining","[2]; buffer, 0 h, 10 μM, pH 7.4",100%
same,% Remaining,"[2]; buffer, 0.05 h, 0.5 μM, pH 7.4",71%
same,"Apocynin area counts, % Remaining","[2]; buffer, 0.05 h, 0.5 μM, pH 7.4",78%
same,"Lipoic acid area counts, % Remaining","[2]; buffer, 0.05 h, 0.5 μM, pH 7.4",103%
same,% Remaining,"[2]; buffer, 0.05 h, 10 μM, pH 7.4",92%
same,"Apocynin area counts, % Remaining","[2]; buffer, 0.05 h, 10 μM, pH 7.4",96%
same,"Lipoic acid area counts, % Remaining","[2]; buffer, 0.05 h, 10 μM, pH 7.4",100%
same,% Remaining,"[2]; buffer, 0.1 h, 0.5 μM, pH 7.4",59%
same,"Apocynin area counts, % Remaining","[2]; buffer, 0.1 h, 0.5 μM, pH 7.4",68%
same,"Lipoic acid area counts, % Remaining","[2]; buffer, 0.1 h, 0.5 μM, pH 7.4",99%
same,% Remaining,"[2]; buffer, 0.1 h, 10 μM, pH 7.4",80%
same,"Apocynin area counts, % Remaining","[2]; buffer, 0.1 h, 10 μM, pH 7.4",91%
same,"Lipoic acid area counts, % Remaining","[2]; buffer, 0.1 h, 10 μM, pH 7.4",105%
same,% Remaining,"[2]; buffer, 0.15 h, 0.5 μM, pH 7.4",47%
same,"Apocynin area counts, % Remaining","[2]; buffer, 0.15 h, 0.5 μM, pH 7.4",65%
same,"Lipoic acid area counts, % Remaining","[2]; buffer, 0.15 h, 0.5 μM, pH 7.4",91%
same,% Remaining,"[2]; buffer, 0.15 h, 10 μM, pH 7.4",87%
same,"Apocynin area counts, % Remaining","[2]; buffer, 0.15 h, 10 μM, pH 7.4",94%
same,"Lipoic acid area counts, % Remaining","[2]; buffer, 0.15 h, 10 μM, pH 7.4",113%
same,% Remaining,"[2]; buffer, 0.2 h, 0.5 μM, pH 7.4",53%
same,"Apocynin area counts, % Remaining","[2]; buffer, 0.2 h, 0.5 μM, pH 7.4",71%
same,"Lipoic acid area counts, % Remaining","[2]; buffer, 0.2 h, 0.5 μM, pH 7.4",89%
same,% Remaining,"[2]; buffer, 0.2 h, 10 μM, pH 7.4",76%
same,"Apocynin area counts, % Remaining","[2]; buffer, 0.2 h, 10 μM, pH 7.4",95%
same,"Lipoic acid area counts, % Remaining","[2]; buffer, 0.2 h, 10 μM, pH 7.4",118%
same,% Remaining,"[2]; buffer, 0.25 h, 0.5 μM, pH 7.4",65%
same,"Apocynin area counts, % Remaining","[2]; buffer, 0.25 h, 0.5 μM, pH 7.4",68%
same,"Lipoic acid area counts, % Remaining","[2]; buffer, 0.25 h, 0.5 μM, pH 7.4",106%
same,% Remaining,"[2]; buffer, 0.25 h, 10 μM, pH 7.4",72%
same,"Apocynin area counts, % Remaining","[2]; buffer, 0.25 h, 10 μM, pH 7.4",86%
same,"Lipoic acid area counts, % Remaining","[2]; buffer, 0.25 h, 10 μM, pH 7.4",114%
same,% Remaining,"[2]; buffer, 0.3 h, 0.5 μM, pH 7.4",59%
same,"Apocynin area counts, % Remaining","[2]; buffer, 0.3 h, 0.5 μM, pH 7.4",70%
same,"Lipoic acid area counts, % Remaining","[2]; buffer, 0.3 h, 0.5 μM, pH 7.4",96%
same,% Remaining,"[2]; buffer, 0.3 h, 10 μM, pH 7.4",71%
same,"Apocynin area counts, % Remaining","[2]; buffer, 0.3 h, 10 μM, pH 7.4",80%
same,"Lipoic acid area counts, % Remaining","[2]; buffer, 0.3 h, 10 μM, pH 7.4",121%
same,% Remaining,"[2]; buffer, 0.35 h, 0.5 μM, pH 7.4",76%
same,"Apocynin area counts, % Remaining","[2]; buffer, 0.35 h, 0.5 μM, pH 7.4",82%
same,"Lipoic acid area counts, % Remaining","[2]; buffer, 0.35 h, 0.5 μM, pH 7.4",117%
same,% Remaining,"[2]; buffer, 0.35 h, 10 μM, pH 7.4",69%
same,"Apocynin area counts, % Remaining","[2]; buffer, 0.35 h, 10 μM, pH 7.4",82%
same,"Lipoic acid area counts, % Remaining","[2]; buffer, 0.35 h, 10 μM, pH 7.4",127%
same,% Remaining,"[2]; buffer, 0.45 h, 0.5 μM, pH 7.4",71%
same,"Apocynin area counts, % Remaining","[2]; buffer, 0.45 h, 0.5 μM, pH 7.4",79%
same,"Lipoic acid area counts, % Remaining","[2]; buffer, 0.45 h, 0.5 μM, pH 7.4",119%
same,% Remaining,"[2]; buffer, 0.45 h, 10 μM, pH 7.4",64%
same,"Apocynin area counts, % Remaining","[2]; buffer, 0.45 h, 10 μM, pH 7.4",80%
same,"Lipoic acid area counts, % Remaining","[2]; buffer, 0.45 h, 10 μM, pH 7.4",134%
same,% Remaining,"[2]; buffer, 0.5 h, 0.5 μM, pH 7.4",94%
same,"Apocynin area counts, % Remaining","[2]; buffer, 0.5 h, 0.5 μM, pH 7.4",85%
same,"Lipoic acid area counts, % Remaining","[2]; buffer, 0.5 h, 0.5 μM, pH 7.4",151%
same,% Remaining,"[2]; buffer, 0.5 h, 10 μM, pH 7.4",71%
same,"Apocynin area counts, % Remaining","[2]; buffer, 0.5 h, 10 μM, pH 7.4",78%
same,"Lipoic acid area counts, % Remaining","[2]; buffer, 0.5 h, 10 μM, pH 7.4",141%
same,% Metabolism in 30 minutes,[2]; DLM/HLM study,34%
same,CLintr (mL/min/g liver),[2]; DLM/HLM study,3.2 mL/min/g liver
same,% Metabolism in 30 minutes,[2]; rat liver microsome study,21%
same,CLintr (mL/min/g liver),[2]; rat liver microsome study,2.3 mL/min/g liver
